EC50 data for four compounds are collected here from US20210363213A1, “GLUCAGON-GLP-1-GIP TRIPLE AGONIST COMPOUNDS” (priority 2013, published 2021).

Like-named read-outs stand apart in the source and are kept apart here. Numbered stars: 1 amine (or outer) side, 2 acyl side, 3 side chain; on linkers, the order of the positions; unused ones are H or OH. Square brackets hold non-standard residues; d marks the D form. Side chains are listed from the residue outwards. Peptide text beside a SMILES is read from it. * marks the point of attachment. C18 diacid = O=C(O)CCCCCCCCCCCCCCCCC(=O)*; γGlu = O=C(O)[C@H](CCC(=O)[*:2])N[*:1]; Stearoyl = CCCCCCCCCCCCCCCCCC(=O)*; AEEA = NCCOCCOCC(=O)O; Aib = CC(C)(N)C(=O)O

For one test, the target named is T1, human GLP-1 R (Homo sapiens, UniProt P43220).
T1 construct: expressed in transfected cells
Briefly: Human GLP-1 receptor (GLP-1-R) activity assay, cAMP induction (AlphaScreen) in HEK293 cells. The class given is cell-based. Conditions: average EC50, cAMP in HEK293 cells expressing human GLP-1 R, read-out: GLP1 R (EC50 in nM).

Another test has as its target human GCG R (Homo sapiens, UniProt P47871). Conditions: read-out: GCG R (EC50 in nM); Table 2; average EC50; cAMP in HEK293 cells expressing human GCG R.
For a further test, the target named is T2, human GIP R (Homo sapiens, UniProt P48546).
T2 construct: expressed in transfected cells
T2 sequence (P48546 22-466): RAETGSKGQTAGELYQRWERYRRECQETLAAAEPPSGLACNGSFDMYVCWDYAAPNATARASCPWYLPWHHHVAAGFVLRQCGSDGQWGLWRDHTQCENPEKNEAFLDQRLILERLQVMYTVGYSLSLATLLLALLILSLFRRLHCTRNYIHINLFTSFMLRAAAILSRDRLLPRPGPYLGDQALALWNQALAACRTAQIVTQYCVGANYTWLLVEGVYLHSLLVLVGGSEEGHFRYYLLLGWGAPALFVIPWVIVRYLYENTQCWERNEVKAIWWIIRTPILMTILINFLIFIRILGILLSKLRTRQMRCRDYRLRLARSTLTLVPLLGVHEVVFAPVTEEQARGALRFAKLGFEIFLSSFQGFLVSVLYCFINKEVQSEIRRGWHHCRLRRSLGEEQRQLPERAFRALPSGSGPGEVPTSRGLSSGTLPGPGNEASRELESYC
In words: Human GIP receptor (GIP-R) activity assay, cAMP induction (AlphaScreen) in HEK293 cells. The class given is cell-based. Particulars: average EC50, cAMP in HEK293 cells expressing human GIP R, read-out: GIP R (EC50 in nM).

Setting [1] is: Table 2b (most comprehensive data).

T1 sequence (P43220 24-463): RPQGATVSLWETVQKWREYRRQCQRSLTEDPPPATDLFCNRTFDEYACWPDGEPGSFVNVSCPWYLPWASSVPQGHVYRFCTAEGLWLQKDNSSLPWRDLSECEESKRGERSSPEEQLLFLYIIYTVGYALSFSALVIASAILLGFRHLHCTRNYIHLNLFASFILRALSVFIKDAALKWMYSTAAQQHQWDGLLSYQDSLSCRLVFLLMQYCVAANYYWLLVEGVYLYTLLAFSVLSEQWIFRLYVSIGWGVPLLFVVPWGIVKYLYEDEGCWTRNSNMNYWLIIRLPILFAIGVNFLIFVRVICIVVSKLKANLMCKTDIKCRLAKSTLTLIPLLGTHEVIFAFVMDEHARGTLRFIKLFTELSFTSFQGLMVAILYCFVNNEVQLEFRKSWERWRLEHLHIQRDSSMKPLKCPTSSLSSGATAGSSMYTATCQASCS
Sequence of human GCG R (P47871 26-477): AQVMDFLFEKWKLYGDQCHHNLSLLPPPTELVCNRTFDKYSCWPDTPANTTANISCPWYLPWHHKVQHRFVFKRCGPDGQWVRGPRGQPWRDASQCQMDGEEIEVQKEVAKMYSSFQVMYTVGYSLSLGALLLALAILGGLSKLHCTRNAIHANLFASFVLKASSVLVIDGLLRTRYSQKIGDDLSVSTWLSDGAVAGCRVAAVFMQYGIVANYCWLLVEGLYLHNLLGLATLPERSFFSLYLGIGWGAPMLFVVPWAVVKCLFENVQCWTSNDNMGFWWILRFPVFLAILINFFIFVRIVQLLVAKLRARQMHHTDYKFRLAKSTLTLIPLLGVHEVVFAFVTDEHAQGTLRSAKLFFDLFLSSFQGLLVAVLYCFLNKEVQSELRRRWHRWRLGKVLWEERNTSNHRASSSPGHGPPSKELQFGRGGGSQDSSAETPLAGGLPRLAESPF
Method for human GCG R: (§1) Briefly, HEK293 cells expressing the human GIP R, GLP-1 R or GCG R (stable cell lines generated through transfection of the cDNA for human GIP R, GLP-1 R or GCG R and selection of stable clones) were seeded at 30,000 cells/well in 96-well microtiter plates coated with 0.01% poly-L-lysine, and grown for 1 day in culture in 200 μl growth medium (DMEM, 10% FCS, Penicillin (100 IU/ml), Streptomycin (100 μg/ml)). On the day of analysis, growth medium was removed and the cells were washed once with 150 μl Tyrode's buffer (Tyrode's Salts (9.6 g/I), 10 mM HEPES, pH 7.4). […] The Assay buffer was removed and cells are lysed in 80 μl Lysis buffer (0.1% w/v BSA, 5 mM HEPES, 0.3% v/v Tween-20) per well. From each well 10 μl of lysed cells were transferred to a 384-well plate and mixed with 15 μl bead-mix (1 Unit/15 μl anti-cAMP Acceptor Beads, 1 Unit/15 μl Donor Beads, and 1 Unit/15 μl Biotinylated cAMP in Assay Buffer). The plates were mixed and incubated in the dark for an hour at room temperature before measuring using an Envision™ plate reader (Perkin-Elmer).
(§2) The resulting cAMP curves were plotted as absolute cAMP concentrations (nM) over log (test compound concentration) and analyzed using the curve fitting program XLfit.
Parameters calculated to describe both the potency as well as the agonistic activity of each test compound on the receptors were: […]
Method for human GIP R: as §1, §2
(§3) Parameters calculated to describe both the potency as well as the agonistic activity of each test compound on the receptors were:
(§4) EC50, a concentration resulting in a half-maximal elevation of cAMP levels, reflecting the potency of the test compound.
Method for human GLP-1 R: as §1, §2, §3, §4

In the case of `CC[C@H](C)[C@H](NC(=O)[C@H](CO)NC(=O)[C@H](Cc1ccc(O)cc1)NC(=O)[C@H](CC(=O)O)NC(=O)[C@H](CO)NC(=O)[C@@H](NC(=O)[C@H](Cc1ccccc1)NC(=O)[C@@H](NC(=O)CNC(=O)[C@H](CCC(N)=O)NC(=O)C(C)(C)NC(=O)[C@@H](N)Cc1ccc(O)cc1)[C@@H](C)O)[C@@H](C)O)C(=O)N[C@@H](Cc1ccc(O)cc1)C(=O)N[C@@H](CC(C)C)C(=O)N[C@@H](CCC(=O)O)C(=O)N[C@@H](CCCCN)C(=O)N[C@@H](CCCCN)C(=O)N[C@@H](C)C(=O)N[C@@H](C)C(=O)N[C@@H](Cc1c[nH]cn1)C(=O)N[C@@H](CC(=O)O)C(=O)N[C@@H](Cc1ccccc1)C(=O)N[C@H](C(=O)N[C@@H](CCC(=O)O)C(=O)N[C@@H](Cc1c[nH]c2ccccc12)C(=O)N[C@@H](CC(C)C)C(=O)N[C@@H](CC(C)C)C(=O)N[C@@H](CO)C(=O)N[C@@H](C)C(N)=O)C(C)C` [Compound 14] (HELM PEPTIDE1{Y.[Aib].Q.G.T.F.T.S.D.Y.S.I.Y.L.E.K.K.A.A.H.D.F.V.E.W.L.L.S.A.[am]}$$$$V2.0), the EC50 at human GLP-1 R (Table 2) was found to be 0.013 nM; on human GCG R, 0.1 nM; at human GIP R (Table 2) it was 0.06 nM.

`CC[C@H](C)[C@H](NC(=O)[C@H](CO)NC(=O)[C@H](Cc1ccc(O)cc1)NC(=O)[C@H](CC(=O)O)NC(=O)[C@H](CO)NC(=O)[C@@H](NC(=O)[C@H](Cc1ccccc1)NC(=O)[C@@H](NC(=O)CNC(=O)[C@H](CCC(N)=O)NC(=O)C(C)(C)NC(=O)[C@@H](N)Cc1ccc(O)cc1)[C@@H](C)O)[C@@H](C)O)C(=O)N[C@@H](Cc1ccc(O)cc1)C(=O)N[C@@H](CC(C)C)C(=O)N[C@@H](CCC(=O)O)C(=O)N[C@@H](CCCCN)C(=O)N[C@@H](CCCCN)C(=O)N[C@@H](C)C(=O)N[C@@H](C)C(=O)N[C@@H](Cc1c[nH]cn1)C(=O)N[C@@H](CC(=O)O)C(=O)N[C@@H](Cc1ccccc1)C(=O)N[C@H](C(=O)N[C@@H](CCC(=O)O)C(=O)N[C@@H](Cc1c[nH]c2ccccc12)C(=O)N[C@@H](CC(C)C)C(=O)N[C@@H](CC(C)C)C(=O)N[C@@H](CO)C(=O)N[C@@H](C)C(N)=O)C(C)C` [Compound 15] (HELM PEPTIDE1{Y.[Aib].Q.G.T.F.T.S.D.Y.S.I.Y.L.E.K.K.A.A.H.D.F.V.E.W.L.L.S.A.[am]}$$$$V2.0): the EC50 on human GLP-1 R (Table 2) turned out to be 0.016 nM; on human GCG R it was 0.058 nM; on human GIP R (Table 2), 0.025 nM.

Take `CC[C@H](C)[C@H](NC(=O)[C@H](CO)NC(=O)[C@H](Cc1ccc(O)cc1)NC(=O)[C@H](CC(=O)O)NC(=O)[C@H](CO)NC(=O)[C@@H](NC(=O)[C@H](Cc1ccccc1)NC(=O)[C@@H](NC(=O)CNC(=O)[C@H](CCC(N)=O)NC(=O)C(C)(C)NC(=O)[C@@H](N)Cc1ccc(O)cc1)[C@@H](C)O)[C@@H](C)O)C(=O)N[C@@H](Cc1ccc(O)cc1)C(=O)N[C@@H](CC(C)C)C(=O)N[C@@H](CC(=O)O)C(=O)N[C@@H](CCCCN)C(=O)N[C@@H](CCCCNC(=O)COCCOCCNC(=O)COCCOCCNC(=O)CC[C@H](NC(=O)CCCCCCCCCCCCCCCCC(=O)O)C(=O)O)C(=O)N[C@@H](C)C(=O)N[C@@H](CCC(N)=O)C(=O)N[C@@H](CCCNC(=N)N)C(=O)N[C@@H](C)C(=O)N[C@@H](Cc1ccccc1)C(=O)N[C@H](C(=O)N[C@@H](CCC(=O)O)C(=O)N[C@@H](Cc1c[nH]c2ccccc12)C(=O)N[C@@H](CC(C)C)C(=O)N[C@@H](CC(C)C)C(=O)N[C@@H](C)C(=O)N[C@@H](CCC(N)=O)C(=O)NCC(=O)N1CCC[C@H]1C(=O)N[C@@H](CO)C(=O)N[C@@H](CO)C(=O)NCC(=O)N[C@@H](C)C(=O)N1CCC[C@H]1C(=O)N1CCC[C@H]1C(=O)N1CCC[C@H]1C(=O)N[C@@H](CO)C(N)=O)C(C)C` [Compound 33] (H-Y[Aib]QGTFTSDYSIYLDKK([AEEA-AEEA-γGlu-C18 diacid])AQRAFVEWLLAQGPSSGAPPPS-NH2): the figures for the EC50 on human GLP-1 R (setting [1]) and on human GIP R (setting [1]) were 0.0093 nM and 0.0099 nM, respectively.

With `CCCCCCCCCCCCCCCCCC(=O)N[C@@H](CCC(=O)NCCOCCOCC(=O)NCCOCCOCC(=O)NCCCC[C@H](NC(=O)[C@H](CCCCN)NC(=O)[C@H](CC(=O)O)NC(=O)[C@H](CC(C)C)NC(=O)[C@H](Cc1ccc(O)cc1)NC(=O)[C@@H](NC(=O)[C@H](CO)NC(=O)[C@H](Cc1ccc(O)cc1)NC(=O)[C@H](CC(=O)O)NC(=O)[C@H](CO)NC(=O)[C@@H](NC(=O)[C@H](Cc1ccccc1)NC(=O)[C@@H](NC(=O)CNC(=O)[C@H](CCC(N)=O)NC(=O)C(C)(C)NC(=O)[C@@H](N)Cc1ccc(O)cc1)[C@@H](C)O)[C@@H](C)O)[C@@H](C)CC)C(=O)N[C@@H](C)C(=O)N[C@@H](CCC(N)=O)C(=O)N[C@@H](CCCNC(=N)N)C(=O)N[C@@H](C)C(=O)N[C@@H](Cc1ccccc1)C(=O)N[C@H](C(=O)N[C@@H](CCC(=O)O)C(=O)N[C@@H](Cc1c[nH]c2ccccc12)C(=O)N[C@@H](CC(C)C)C(=O)N[C@@H](CC(C)C)C(=O)N[C@@H](C)C(=O)N[C@@H](CCC(N)=O)C(=O)NCC(=O)N1CCC[C@H]1C(=O)N[C@@H](CO)C(=O)N[C@@H](CO)C(=O)NCC(=O)N[C@@H](C)C(=O)N1CCC[C@H]1C(=O)N1CCC[C@H]1C(=O)N1CCC[C@H]1C(=O)N[C@@H](CO)C(N)=O)C(C)C)C(=O)O` [Compound 35] (H-Y[Aib]QGTFTSDYSIYLDKK([AEEA-AEEA-γGlu-Stearoyl])AQRAFVEWLLAQGPSSGAPPPS-NH2), the EC50 at human GLP-1 R (setting [1]) was 0.012 nM; on human GIP R (setting [1]), 0.01 nM.
